The values that follow come from article PMC4000408, “No clinically significant drug interactions between lenalidomide and P-glycoprotein substrates and inhibitors: results from controlled phase I studies in healthy volunteers” (Cancer Chemotherapy and Pharmacology, 2014).

The nature of data set [1]: Study 1: lenalidomide-digoxin pharmacokinetic interaction, double-blind placebo-controlled crossover in healthy subjects. As to conditions: for T max: median (range). As for the experimental part: Study 1 was designed as a double-blind, placebo-controlled, randomized, 2-period, crossover trial. Subjects were randomized to receive either lenalidomide 10 mg/day for 7 days in Study Period 1 and the matching placebo for 7 days in Study Period 2, or to receive the same two treatments in the reverse order. […] A 10-day washout separated the study periods.
For analysis of lenalidomide in plasma and urine, the assay ranges were 5–1,000 and 100–20,000 ng/mL, respectively, and the details of methods were described previously. […] C [2, 3] H7]-temsirolimus were quantitatively extracted from whole blood sample by protein precipitation extraction.
Non-compartmental pharmacokinetic parameters were estimated from drug concentration–time profiles. Major pharmacokinetic parameters included C max, time to reach C max (T max), terminal-phase half-life (t 1/2), AUC from time zero to the last measurable concentration (AUCt), AUC from time zero to infinity (AUC∞), cumulative urinary excretion as a percentage of administered dose (fe), and renal clearance (CLR).
An analysis of variance (ANOVA) was performed on the natural log-transformed pharmacokinetic parameters to estimate the percentage ratio of geometric means between treatments, and the 90 % confidence interval (CI) for key pharmacokinetic parameters.

A short description of data set [2]: Study 2, Part 2: lenalidomide-temsirolimus pharmacokinetic interaction, open-label crossover in healthy subjects. The class given is in vivo, human. Conditions: for AUC(0-inf) / AUC(0-t) / Cmax / half-life / CL renal / fe (cumulative urinary excretion as a percentage of administered dose): geometric mean (geometric CV %); for Tmax: median (range); for CL renal: plasma and urine, read-out: CLR (renal clearance); for fe (cumulative urinary excretion as a percentage of administered dose): urine. As for the experimental part:
Study 2, Part 2 was designed as an open-label, fixed-sequence, 3-period, crossover trial. In Period 1, subjects received a single oral dose of 25 mg lenalidomide; in Period 2, subjects received a single dose of temsirolimus 25 mg via a 30-min intravenous (IV) infusion; and in Period 3, subjects received both a single 25 mg oral dose of lenalidomide and a single 25 mg IV dose of temsirolimus. Pre-treatment with IV diphenhydramine (25 mg) was administered 30 min prior to start of each temsirolimus infusion. There was a 7–10 day washout between Study Periods 1 and 2, and a minimum 14-day washout between Study Periods 2 and 3.

The test system of another data set is P-gp. Conditions: up to a concentration of 300 μM, P-gp expressing LLC-PK1 cell line; cited from earlier work.
Details of data set [3]: method as in PMID 22213235. As to conditions: cited from earlier work.
A further data set relates to CYP3A4. As to conditions: cited from earlier work.
Data set [4] is described as follows: Study 2, Part 1: lenalidomide-quinidine pharmacokinetic interaction, open-label crossover in healthy subjects. Format: in vivo, human. Conditions: for fe (cumulative urinary excretion as a percentage of administered dose): urine. As for the experimental part:
Study 2, Part 1 was designed as an open-label, fixed-sequence, 2-period, crossover trial. In Period 1, subjects received a single oral dose of 25 mg lenalidomide. […] Study periods were separated by a washout of 7–10 days. In both periods, serial blood samples were collected, and urine samples were pooled over specified intervals for up to 48-h post-lenalidomide dosing to determine plasma and urine lenalidomide concentrations.

The test system of another data set is human P-gp. Also on record: method as in ref 14, 15 = [14]; 14. Kumar GN, Surapaneni S, Lau H, Laskin O, Fox L (2008) Interaction of lenalidomide with human drug transporters in vitro [abstract 381]. ISSX Online Abstracts Supplement 3 (No. 3). Presented at the || [15]; PMID 21825263; doi:10.1200/JCO.2010.32.4962; 15. Hofmeister CC Yang X Pichiorri F Chen P Rozewski DM Johnson AJ Lee S Liu Z Garr CL Hade EM Ji J Schaaf LJ Benson DM Jr Kraut EH Hicks WJ Chan KK Chen CS Farag SS Grever MR Byrd JC Phelps MA Phase. Conditions: monolayers of LLC-PK1 and MDCKII cell lines expressing human P-gp; cited from earlier work.

For data set [5] the following is noted: cited from earlier work.
On the set-up of data set [6]: method as in ref 15 = [15]; PMID 21825263; doi:10.1200/JCO.2010.32.4962; 15. Hofmeister CC Yang X Pichiorri F Chen P Rozewski DM Johnson AJ Lee S Liu Z Garr CL Hade EM Ji J Schaaf LJ Benson DM Jr Kraut EH Hicks WJ Chan KK Chen CS Farag SS Grever MR Byrd JC Phelps MA Phase. Conditions: MM patients, cited from earlier work.
Data set [7] is described as follows: Safety evaluation in the phase I studies (AEs, laboratory values, ECG, vital signs). Format: in vivo, human. Conditions: lenalidomide given with digoxin, quinidine or temsirolimus vs lenalidomide alone or with placebo. As for the experimental part: Safety was evaluated throughout each study by monitoring AEs, physical examinations, vital signs, clinical laboratory values, and 12-lead electrocardiogram results and was summarized using descriptive statistics.

Another data set deals with human P-gp transporters. Conditions: read-out: Ki for inhibiting human P-gp transporters in vitro; cited from earlier work.
Where [8] appears, read: human, oral, lenalidomide 25 mg alone (n = 17), plasma.
Setting [9] is: human, lenalidomide 25 mg + temsirolimus 25 mg IV (n = 11), plasma.
[10] abbreviates: human, oral, lenalidomide 25 mg alone (n = 14), plasma, geometric mean (geometric CV %).
Where [11] appears, read: human, temsirolimus 25 mg IV + lenalidomide 25 mg (n = 11), whole blood.
The mark [12] stands for this setting: human, temsirolimus 25 mg IV alone (n = 14), whole blood.

The structures appear in SMILES notation. pKi: −log10 of the molar value. Like-named read-outs stand apart in the source and are kept apart here.

Turning to `C[C@H]1O[C@@H](O[C@H]2[C@@H](O)C[C@H](O[C@H]3[C@@H](O)C[C@H](O[C@H]4CC[C@@]5(C)[C@H](CC[C@@H]6[C@@H]5C[C@@H](O)[C@]5(C)[C@@H](C7=CC(=O)OC7)CC[C@]65O)C4)O[C@@H]3C)O[C@@H]2C)C[C@H](O)[C@@H]1O` [Digoxin], in data set [1] (digoxin 0.5 mg + lenalidomide 10 mg/day (n = 17), plasma), the T max is listed as 1.0 (1–3) h. For the same molecule, the T max in data set [1] (digoxin 0.5 mg alone (with placebo) (n = 17), plasma) is reported as 1.0 (1–3) h. In data set [1] (human, plasma, oral, 0.5 mg), the AUC(0-inf) stood at 26.3 ng·h/mL, the AUC(0-t) turned out to be 19.1 ng·h/mL, the peak level (Cmax) was 1.69 ng/mL and the half-life is 1940 min.
In the case of `Nc1cccc2c1CN(C1CCC(=O)NC1=O)C2=O` (stereo not shown) [Lenalidomide], the AUC(0-inf) in [2] (setting [8]) worked out at 1350 ng·h/mL; in data set [2] (setting [9]), 1440 ng·h/mL; in [4] (setting [10]) it was 1360 ng·h/mL; in [1] (human, in vivo, 10 mg), 475 ng·h/mL. The AUC(0-t) in [2] (setting [8]) was 1280 ng·h/mL; in data set [2] (setting [9]), 1370 ng·h/mL; in [4] (setting [10]), 1290 ng·h/mL; in [1] (human, in vivo, 10 mg), 396 ng·h/mL. The Cmax in data set [2] (setting [8]) was 364 ng/mL; in data set [2] (setting [9]), 361 ng/mL; in data set [4] (human, oral, lenalidomide 25 mg alone (n = 14), plasma, geometric mean (geometric CV %), read-out: Cmax), 367 ng/mL; in data set [1] (human, in vivo, 10 mg) it was 119 ng/mL. For the same molecule, the half-life is 169 min in data set [2] (setting [8]); 161 min in [2] (setting [9]); 169 min in data set [4] (setting [10]); 144 min in [1] (human, in vivo, 10 mg). Besides, the time to peak (Tmax) in data set [2] (setting [8]) amounted to 30 min; in data set [2] (setting [9]), 60 min; in data set [4] (human, oral, lenalidomide 25 mg alone (n = 14), plasma, median (range)) it was 1 h; in data set [1] (human, in vivo, 10 mg), 1 h. Also, the CL renal stood at 251 mL/min in data set [2] (human, oral, lenalidomide 25 mg alone (n = 17)); 229 mL/min in [2] (human, lenalidomide 25 mg + temsirolimus 25 mg IV (n = 11)); 227 mL/min in data set [4] (human, plasma and urine, oral, lenalidomide 25 mg alone (n = 14), geometric mean (geometric CV %), read-out: CLR (renal clearance)). Also, the “fe (cumulative urinary excretion as a percentage of administered dose)” value in data set [2] (lenalidomide 25 mg + temsirolimus 25 mg IV (n = 11)) is 79.6 (8.0) % dose; in [2] (lenalidomide 25 mg alone (n = 17)), 81.0 (10.0) % dose; in data set [4] (lenalidomide 25 mg + quinidine (n = 14), geometric mean (geometric CV %)), 70.2 (6.6) % dose; in [4] (lenalidomide 25 mg alone (n = 14), geometric mean (geometric CV %)), 74.2 (11.4) % dose. The “Inhibition of P-gp-dependent transport of digoxin” value in the data set on P-gp is reported as “did not inhibit”. Further, the “Lenalidomide AUC with itraconazole relative to other MM patients receiving lenalidomide alone” value in [3] (MM patient, lenalidomide 10 mg/day + itraconazole 100 mg/day vs lenalidomide 25 mg/day alone) is 12 fold. Also, the “Elimination half-life (t 1/2)” value is recorded as 5.5 h in [3] (with itraconazole) and 6.7 h in data set [3] (without itraconazole). Moreover, the “CYP3A4 substrate, inhibitor or inducer status” value in the data set with CYP3A4 is “not a substrate, inhibitor, or inducer of CYP3A4”. The “90 % CIs for the ratio of geometric means, lenalidomide alone vs plus an interacting drug, for renal clearance” value in [4] (interacting drug quinidine or temsirolimus (Study 2)) is “completely contained within the limits of 80 and 125%”. In addition, the “Time by which urinary excretion of unchanged lenalidomide was nearly complete” value in [4] (post-dose, under all treatment conditions (alone, + quinidine, + temsirolimus)) was no more than 12 h. Further, in the data set with human P-gp, the Efflux ratio result is listed as “approximately 3”. Besides, the “Absorption after oral administration” value in data set [5] is recorded as greater than 90%. Further, the “Administered dose eliminated by renal excretion of the unchanged drug” value in data set [5] was “Approximately 80%”. Also, the Bioavailability in [5] (known high bioavailability) is listed as greater than 90%. For the same molecule, the “C max and AUC of lenalidomide with increasing doses of temsirolimus” value in [6] (lenalidomide 25 mg/day, temsirolimus 15–20 mg/day) is “increase”. In addition, the “Number of subjects reporting AEs, or number of AEs reported” value in data set [7] is “no apparent increase”. Besides, the “90 % CIs for the ratio of geometric means, lenalidomide alone vs plus an interacting drug, for Cmax and AUC in plasma” value in [1] (human, in vivo) is “completely contained within the limits of 80 and 125%”. The “Median time of observed Cmax of lenalidomide” value in [1] (human, in vivo) is 0.5 to 1 h.
`C=C[C@H]1C[N@@]2CC[C@H]1C[C@@H]2[C@@H](O)c1ccnc2ccc(OC)cc12` [Quinidine]: the “Estimated mean C max for unbound quinidine” value in [4] (assuming 15 % of unbound drug) is reported as “approximately 1 μM”. For the same molecule, the peak level in data set [4] (human, oral, 600 mg twice daily, plasma, Day 4, CV % 24.3) (Cmax) was 2350 ng/mL. Further, in [4] (plasma, Days 4–5, quinidine sulfate 600 mg twice daily), the “Mean quinidine trough concentration” value is on record as 1,705 ng/mL. The pKi in the data set on human P-gp transporters is 6.05.
Turning to `CO[C@H]1C[C@@H]2CC[C@@H](C)[C@@](O)(O2)C(=O)C(=O)N2CCCC[C@H]2C(=O)O[C@H]([C@H](C)C[C@@H]2CC[C@@H](OC(=O)C(C)(CO)CO)[C@H](OC)C2)CC(=O)[C@H](C)/C=C(\C)[C@@H](O)[C@@H](OC)C(=O)[C@H](C)C[C@H](C)/C=C/C=C/C=C/1C` [Temsirolimus], in data set [2] (human, in vivo), the “90 % CIs for the ratio of geometric means, temsirolimus alone vs temsirolimus plus lenalidomide, for C max and AUCt” value was “completely contained within the limits l of 80 and 125%”. Further, in [2] (setting [11]), the total exposure AUC(0-inf) was found to be 2710 ng·h/mL, the AUC(0-t) stood at 2570 ng·h/mL, the maximum concentration (Cmax) stood at 649 ng/mL and the half-life was 912 min. In addition, the Tmax in [2] (setting [11]) amounted to 28.2 min. In addition, in data set [2] (setting [12]), the AUC(0-inf) stood at 2800 ng·h/mL, the exposure AUC(0-t) was found to be 2670 ng·h/mL, the highest concentration (Cmax) stood at 586 ng/mL and the half-life is 918 min. Besides, in data set [2] (setting [12]), the Tmax was 28.2 min. Also, in [6] (temsirolimus 15 mg/day, lenalidomide 15–25 mg/day), the “C max and AUC of temsirolimus with increasing doses of lenalidomide” value was “increase”.

As a reminder, the AUC(0-inf) is total exposure, with the tail of the curve extrapolated. Usually AUC(0-t) stands for the area under the concentration-time curve up to a stated or last time point. For orientation: Cmax means the highest concentration seen after dosing. What is called half-life is how long it takes for the measured level to halve. One may read the Tmax as the time from dosing to the highest level. The term pKi denotes the negative decadic logarithm of the Ki, by convention in mol/L.
